Here are results for four compounds from PMC9555309, “Improvement of native structure-based peptides as efficient inhibitors of protein-protein interactions of SARS-CoV-2 spike protein and human ACE2” (Frontiers in Molecular Biosciences, 2022).

No end group written: not given here. Some results are limits rather than exact numbers.

For data set [1], the target named is RBD domain of the SARS-CoV-2 S protein (Severe acute respiratory syndrome coronavirus 2, UniProt P0DTC2). Kind of data set: biochemical. The class given is binding. The settings on record: KD Tmeasur. 25°C.
Data set [2] has as its system BEAS 2B cells. Kind of data set: MTS cell viability assay, BEAS 2B. The settings on record: 72 h exposure, concentrations up to 1 mM. The class given is cell-based, human. As for the experimental part:
(§1) BEAS 2B (cat. no.: ATCC® CRL-9609™) and Calu-3 (cat. no.: ATCC HTB-55™) cell lines were purchased from the American Type Culture Collection (ATCC, United States). BEAS 2B cells were maintained in Bronchial Epithelial Cell Growth Medium (BEGM) containing Bronchial Epithelial Basal Medium (BEBM cat. no.: CC-3171) supplemented with growth factors (SingleQuotsTM Supplement Pack cat. no.: CC-4175), both from Lonza (Switzerland). […]
(§2) After 72 h of incubation at 37°C, the combined solution of MTS (Promega, United States, cat. no.: G1112) and an electron coupling reagent, phenazine methosulfate (PMS, Sigma-Aldrich, Merck, Germany, cat. no.: P9625) was added to the cell culture media, to a final concentration of 333 μg/ml MTS and 25 μM PMS. Cells were then incubated for 3 h at 37°C in a humidified, 5% CO2 atmosphere, and the absorbance at 490 nm wavelength was measured using a spectrophotometer (Synergy HT Microplate Reader, BioTek, United States). The absorbance values recorded for cells exposed to peptide were compared to values measured for untreated control cells, regarded as 100% cell viability.
(§3) The amount of formazan product measured spectrophotometrically is directly proportional to the number of viable cells ([Berridge et al., 2005]).
For orientation: Tetrazolium assays rely on reduction of a dye to a coloured formazan, in cell work by metabolically active cells.

In data set [3] the test system is Calu-3 cells. Nature of the data set: MTS cell viability assay, Calu-3. The settings on record: Calu-3, 72 h exposure, concentrations up to 1 mM. Format: cell-based, human. As for the experimental part:
as §1, §2, §3

Data set [4] deals with SARS-CoV-2 S protein - hACE2 interaction. The conditions noted are these: ref Odolczyk et al., 2021; read-out: IC50 inhibition of virus-host protein-protein interaction; cited from earlier work.

By Kd is commonly meant the constant that tells how readily two partners part at equilibrium. Lower therefore signals higher affinity. On to `NC(=O)C[C@H](NC(=O)CNC(=O)[C@H](Cc1ccc(O)cc1)NC(=O)[C@@H](N)CC(=O)O)C(=O)N[C@@H](Cc1c[nH]cn1)C(=O)N[C@@H](CCC(=O)O)C(=O)O` [J3, DYGNHE], for which the Kd in data set [1] is 0.05 ± 0.01 µM. For the same compound, the “Cell viability (MTS)” value in data set [2] and in data set [3] was “not affected” throughout.

One may read the IC50 as the concentration at which inhibition is half-maximal. On to `NCCCC[C@H](NC(=O)[C@@H](N)CC(=O)O)C(=O)NCC(=O)N[C@@H](CC(N)=O)C(=O)N[C@@H](Cc1c[nH]cn1)C(=O)N[C@@H](CCC(=O)O)C(=O)O` [pep1d, DKGNHE], for which the IC50 in data set [4] was 3300 µM.

In data set [1], LYGNYE [J3.5, LYGNYE] showed a dissociation constant Kd above 1 µM. Same read-out and setting: with MYGNYE [J3.4, MYGNYE] the figure was above 10 µM.
